# Source: patent US20200038399A1, “FORMULATIONS, METHODS, KIT, AND DOSAGE FORMS FOR TREATING BACTERIAL INFECTION” (Motif BioSciences Inc., priority 2016, published 2020)
# Several values for one entry are separate records, joined by “and”; a condition that tells them apart may be missing. Identical values can stand only once.
# Key:
# Pneumocystis jirovecii [1] = assay: in vitro anti-Pneumocystis susceptibility, broth microdilution in axenic culture; details: 4 days
# Experimental: Iclaprim was synthesized at Arpida Ltd. (Münchenstein, Switzerland). TMP and SMX were obtained from Sigma, Spain. […] TMP and SMX solutions were mixed appropriately to obtain a final 1:5-combination. For evaluating the in vitro anti-Pneumocystis activity, the drug stock solutions were diluted in Dulbecco's Modified Eagle's Medium (DMEM, Bio-Whittaker) supplemented with 10% heat-inactivated fetal calf serum (FCS, GIBCO-BRL) to produce the required drug concentrations. […] Compound solutions were prepared just before use.
# Corticosteroid-treated conventional laboratory rats were used as an animal model to obtain P. jirovecii organisms. Ten-week-old female Wistar rats (Harlan, France) were immunosuppressed for 3 weeks with dexamethasone (Fortecortin®, Merck) administered in the drinking water (2 mg/liter). Rats were then inoculated with 20×10^6 of cryopreserved parasites using a non-surgical endotracheal method. Dexamethasone treatment was maintained until the end of the experiment. Six to eight weeks' post-inoculation (p.i.) rats were highly infected, without secondary fungal or bacterial infection. Animals were allowed sterile standard food (UAR, France) and water ad libitum.
# Six to eight weeks following inoculation, rats were sacrificed and parasite extraction was performed. Briefly, parasites were extracted in Dulbecco's Modified Eagle's Medium (DMEM; Bio-Whittaker) by agitation of lung pieces with a magnetic stirrer. The resulting homogenate was poured successively through gauze, 250 and 63 micron stainless steels filters. After centrifugation, the pellet was resuspended in a hemolytic buffered solution. […] Blood and Sabouraud dextrose agar (Difco) media were inoculated with purified parasites to check for the presence of eventual contaminating pathogens.
# In vitro pharmacodynamic properties were determined using the Hill equation (Emax sigmoid model; see below).
# In vitro susceptibility studies were performed using the broth microdilution technique. […] All the experiments were carried out in 24-well plates with a final volume of 2 ml of DMEM supplemented with 10% FCS containing a final inoculum of 0.5×10^6 organisms per ml. Plates were then incubated for 4 days in an atmosphere of 5% C0^2 at 37° C. One free-drug control was included in each assay. Parasite quantitation was performed on homogenate smears as described above. All susceptibility assays were set up in triplicate.
# Analysis of results. […] Once all the differences between drug-treated and untreated wells were calculated, the concentration-effect relationship was established by using the Hill equation:
# The parameters of this pharmacodynamic model were calculated by nonlinear least-squares regression techniques using a commercial software (Sigma Plot).
# S. aureus 101 = assay: MIC determination; assay type: cell-based, Staphylococcus aureus; details: Staphylococcus aureus, 101, 18 h; read-out: Minimum inhibitory concentrations (MIC)
# How it was run: (§1)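 Microtiter dilution; CA-MHB for K. pneumoniae/S. aureus, BHI for M. catarrhalis, HTM (MHB + yeast extract + NAD/hematin) for H. influenzae. 37 °C, 18 h; 5% CO2 for H. influenzae and M. catarrhalis, air otherwise. MIC: no visible growth.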
# [2] = test system: Staphylococcus aureus AH 1246; assay: mouse subcutaneous abscess model; assay type: in vivo; details: mice; 40 mg/Kg (alone); PO @ 8, 24, 32, 48, 56 hours post infection
# Experimental: Wild type S. aureus ATCC 25923 and its TK-deficient mutant AH 1246 were supplied by Arpida AG, Reinach, Switzerland.
# S. aureus strains were grown on TSA plates at 37° C. in 5% CO2. The bacteria concentration was adjusted by re-suspending a portion of the overnight growth of the plate in saline and adjusting a 1:10 dilution of the suspension to achieve an OD625 of 0.1. The adjusted suspension was diluted 1:2 in prepared Cytodex beads (1 gram/50 mL PBS) to a final concentration of 5.0×10^5 CFU/mL. Bacterial enumeration was performed to determine actual concentration of the bacterial inoculum.
# CD-1 female mice (weighing 18 to 22 grams) from Charles River Laboratories (Wilmington, Mass.) were acclimated for 5 days prior to start of study. All studies were performed under approved IACUC protocols and conform to OLAW standards. Animals had free access to food and water throughout the study. Animals were provided enrichment and housed 5 per cage.
# Mice were injected SC with 0.2 mL of the bacterial-Cytodex inoculum. […] The mice were then euthanized and the abscesses aseptically removed, homogenized, serially diluted and plated for bacterial enumeration.
# [3] = in vivo; cited from earlier work
# S. pneumoniae 1/1 = assay: MIC determination; assay type: cell-based, Streptococcus pneumoniae; details: Streptococcus pneumoniae; S. pneumoniae 1/1; 18 hours at 37° C., 5% CO2; read-out: Minimum inhibitory concentrations (MIC)
# [4] = test system: Haemophilus influenzae ATCC 49766; assay: MIC determination; assay type: cell-based; details: Haemophilus influenzae, ATCC49766; H. Influenza 49766; 18 hours at 37° C., 5% CO2; read-out: Minimum inhibitory concentrations (MIC)
# How it was run: as §1
# [5] = test system: Streptococcus pneumoniae ATCC 49619; assay: MIC determination; assay type: cell-based; details: Streptococcus pneumoniae, ATCC49619; S. pneumoniae 49619; 18 hours at 37° C., 5% CO2; read-out: Minimum inhibitory concentrations (MIC)
# [6] = test system: Staphylococcus aureus ATCC 25923; assay: MIC determination; assay type: cell-based; details: Staphylococcus aureus, ATCC25923; S. aureus 25923; 18 hours at 37° C.; read-out: Minimum inhibitory concentrations (MIC)
# How it was run: as §1
# [7] = test system: Moraxella catarrhalis RA 21; assay: MIC determination; assay type: cell-based; details: Moraxella catarrhalis, RA21; M. catarrhalis RA 21; 18 hours at 37° C., 5% CO2; read-out: Minimum inhibitory concentrations (MIC)
# How it was run: as §1
# [8] = test system: Klebsiella pneumoniae ATCC 33495; assay: MIC determination; assay type: cell-based; details: Klebsiella pneumoniae, ATCC33495; K. pneumonia 33495; 18 hours at 37° C.; read-out: Minimum inhibitory concentrations (MIC)
# How it was run: as §1
# Pneumocystis jirovecii [9] = assay: in vivo Pneumocystis pneumonia model, corticosteroid-treated rats; details: once a day for 10 days; for Mean % + SD (inhibition of cysts, TBO) / Mean % + SD (inhibition of total parasites, Giemsa): group mean; for Total cysts (TBO) / Total parasites (Giemsa): rat lung; for Total cysts (TBO) / Total parasites (Giemsa) / % of inhibition vs Control (total parasites, Giemsa) / % of inhibition vs control (cysts, TBO): single rat
# Experimental: Compound solutions were prepared just before use.
# The drugs were given once a day for 10 consecutive days. The final concentration of DMSO in diluted drug solutions was between 1.5 and 15%. Control animals were dosed with sterile water with 15% of DMSO. At the end of the experiment, therapeutic efficacy was assessed by counting P. jirovecii in lung homogenates and comparing the counts with those of the untreated controls. Twenty-four hours after the end of the treatment, animals were sacrificed and the lung homogenized in a Stomacher-400 blender as previously described (European Concerted Action on Pneumocystis Research. Parasitology Today 12: 245-9, 1996, the entire disclosure of which is herein incorporated by reference). Parasite quantitation was performed on air-dried smears stained with toluidine blue 0 (cystic forms) or RAL-555 stains (vegetative, precystic and cystic forms).
# [10] = 5 mg/kg/d oral, listed as AR-100, 5 mg/kg/day
# [11] = 25 mg/kg/d oral, listed as AR-100, 25 mg/kg/day
# [12] = 50 mg/kg/d oral, listed as AR-100, 50 mg/kg/day
compound,measurement,setting,value
"COc1cc(Cc2cnc(N)nc2N)c2c(c1OC)OC(C1CC1)C=C2 (racemic) [Iclaprim, 5-[(2RS)-2-cyclopropyl-7,8-dimethoxy-2Hchromen-5-ylmethyl] pyrimidine-2,4-diamine]",% inhibition vs control,Pneumocystis jirovecii [1]; Iclaprim 5 μg/ml,5.8 ± 2.6%
same,Log (total parasites),Pneumocystis jirovecii [1]; Iclaprim 5 μg/ml,6.2
same,Total parasites (× 10^6),Pneumocystis jirovecii [1]; Iclaprim 5 μg/ml,1.5 ± 0.04 × 10^6
same,% inhibition vs control,Pneumocystis jirovecii [1]; Iclaprim 11 μg/ml,19.3 ± 7.4%
same,Log (total parasites),Pneumocystis jirovecii [1]; Iclaprim 11 μg/ml,6.1
same,Total parasites (× 10^6),Pneumocystis jirovecii [1]; Iclaprim 11 μg/ml,1.3 ± 0.1 × 10^6
same,% inhibition vs control,Pneumocystis jirovecii [1]; Iclaprim 18 μg/ml,44.0 ± 6.3%
same,Log (total parasites),Pneumocystis jirovecii [1]; Iclaprim 18 μg/ml,5.9
same,Total parasites (× 10^6),Pneumocystis jirovecii [1]; Iclaprim 18 μg/ml,0.9 ± 0.1 × 10^6
same,% inhibition vs control,Pneumocystis jirovecii [1]; Iclaprim 24 μg/ml,58.1 ± 3.1%
same,Log (total parasites),Pneumocystis jirovecii [1]; Iclaprim 24 μg/ml,5.8
same,Total parasites (× 10^6),Pneumocystis jirovecii [1]; Iclaprim 24 μg/ml,0.7 ± 0.05 × 10^6
same,% inhibition vs control,Pneumocystis jirovecii [1]; Iclaprim 31 μg/ml,79.3 ± 4.8%
same,Log (total parasites),Pneumocystis jirovecii [1]; Iclaprim 31 μg/ml,5.5
same,Total parasites (× 10^6),Pneumocystis jirovecii [1]; Iclaprim 31 μg/ml,0.3 ± 0.08 × 10^6
same,% inhibition vs control,Pneumocystis jirovecii [1]; Iclaprim 37 μg/ml,92.3 ± 1.9%
same,Log (total parasites),Pneumocystis jirovecii [1]; Iclaprim 37 μg/ml,5.1
same,Total parasites (× 10^6),Pneumocystis jirovecii [1]; Iclaprim 37 μg/ml,0.1 ± 0.03 × 10^6
same,% inhibition vs control,Pneumocystis jirovecii [1]; Iclaprim 44 μg/ml,98.3 ± 0.72%
same,Log (total parasites),Pneumocystis jirovecii [1]; Iclaprim 44 μg/ml,4.4
same,Total parasites (× 10^6),Pneumocystis jirovecii [1]; Iclaprim 44 μg/ml,0.03 ± 0.01 × 10^6
same,% inhibition vs control,Pneumocystis jirovecii [1]; Iclaprim 50 μg/ml,99.7 ± 0.04%
same,Log (total parasites),Pneumocystis jirovecii [1]; Iclaprim 50 μg/ml,3.7
same,Total parasites (× 10^6),Pneumocystis jirovecii [1]; Iclaprim 50 μg/ml,0.01 ± 0.001 × 10^6
same,% inhibition vs control,Pneumocystis jirovecii [1]; Iclaprim 80 μg/ml,99.8 ± 0.12%
same,Log (total parasites),Pneumocystis jirovecii [1]; Iclaprim 80 μg/ml,3.4
same,Total parasites (× 10^6),Pneumocystis jirovecii [1]; Iclaprim 80 μg/ml,0.003 ± 0.002 × 10^6
same,% inhibition vs control,Pneumocystis jirovecii [1]; Iclaprim 100 μg/ml,99.9 ± 0.07%
same,Log (total parasites),Pneumocystis jirovecii [1]; Iclaprim 100 μg/ml,3.3
same,Total parasites (× 10^6),Pneumocystis jirovecii [1]; Iclaprim 100 μg/ml,0.002 ± 0.001 × 10^6
same,MIC,S. aureus 101,1 µg/mL
same,Change in average log10 CFU/gr of Abscess from Controls,[2],−0.79 log10 CFU/gr
same,t½ (plasma half-life),[3],about 2.9 hours
same,MIC,S. pneumoniae 1/1,1 µg/mL
same,MIC,[4],0.25 µg/mL
same,MIC,[5],0.125 µg/mL
same,MIC,[6],0.063 µg/mL
same,MIC,[7],2 µg/mL
same,MIC,[8],8 µg/mL
same,"Mean % + SD (inhibition of cysts, TBO)",Pneumocystis jirovecii [9]; 5 mg/kg/d oral,69.4 ± 8.4%
same,"Mean % + SD (inhibition of total parasites, Giemsa)",Pneumocystis jirovecii [9]; 5 mg/kg/d oral,66.9 ± 7.8%
same,"Mean % + SD (inhibition of cysts, TBO)",Pneumocystis jirovecii [9]; 25 mg/kg/d oral,72.0 ± 30.0%
same,"Mean % + SD (inhibition of total parasites, Giemsa)",Pneumocystis jirovecii [9]; 25 mg/kg/d oral,79.1 ± 20.9%
same,"Mean % + SD (inhibition of cysts, TBO)",Pneumocystis jirovecii [9]; 50 mg/kg/d oral,71.7 ± 14.5%
same,"Mean % + SD (inhibition of total parasites, Giemsa)",Pneumocystis jirovecii [9]; 50 mg/kg/d oral,76.5 ± 13.3%
same,Total cysts (TBO),Pneumocystis jirovecii [9]; [10],3.85.10^+7 and 2.60.10^+7 and 4.61.10^+7
same,Total parasites (Giemsa),Pneumocystis jirovecii [9]; [10],9.13.10^+8 and 6.56.10^+8
same,Total cysts (TBO),Pneumocystis jirovecii [9]; [11],1.72.10^+7 and 8.94.10^+6 and 9.11.10^+7
same,Total parasites (Giemsa),Pneumocystis jirovecii [9]; [11],3.94.10^+8 and 3.41.10^+7 and 9.38.10^+8
same,Total cysts (TBO),Pneumocystis jirovecii [9]; [12],5.17.10^+7 and 3.38.10^+7 and 5.23.10^+7
same,Total parasites (Giemsa),Pneumocystis jirovecii [9]; [12],5.68.10^+8 and 7.71.10^+8 and 2.00.10^+8
same,"% of inhibition vs Control (total parasites, Giemsa)",Pneumocystis jirovecii [9]; [10],58.1% and 69.9% and 72.8%
same,"% of inhibition vs control (cysts, TBO)",Pneumocystis jirovecii [9]; [10],68.0% and 78.4% and 61.7%
same,"% of inhibition vs Control (total parasites, Giemsa)",Pneumocystis jirovecii [9]; [11],81.9% and 98.4% and 90.8%
same,"% of inhibition vs control (cysts, TBO)",Pneumocystis jirovecii [9]; [11],85.7% and 92.6% and 37.7%
same,"% of inhibition vs Control (total parasites, Giemsa)",Pneumocystis jirovecii [9]; [12],74.0% and 64.7% and 90.8%
same,"% of inhibition vs control (cysts, TBO)",Pneumocystis jirovecii [9]; [12],57.1% and 71.9% and 86.1%
